These are literature values, as cited in patent US20200319191A1, “MOLECULAR PROFILING FOR CANCER” (Caris MPI, Inc., priority 2015, published 2020).

The conditions of this data set: for sensitivity of AML tumor cells by NPM status: AML tumor cells with mutant NPM; for resistance by ALK secondary mutations: ALK secondary mutations found in NSCLC; for Bene. Level, PGP Positive (IHC) / Evid. Level, PGP Positive (IHC): Anthracyclines.
Setting [1] is: Hormonal Agents, ER Positive (IHC)=T.

Read-outs that look alike come from different tables or passages of the source.

`CC(C)(C#N)c1cc(Cn2cncn2)cc(C(C)(C)C#N)c1` [anastrozole]: the “Evid. Level, ER Positive (IHC)” value (Hormonal Agents, ER Positive (IHC)=F) is listed as 1. In addition, under setting [1], the “Bene. Level, ER Positive (IHC)” value was 1 and the “Evid. Level, ER Positive (IHC)” value was 1.

Take `CC[C@@]1(O)C(=O)OCc2c1cc1n(c2=O)Cc2cc3ccccc3nc2-1` [camptothecin]: the “sensitivity of AML tumor cells by NPM status” value was “research shows AML tumor cells with mutant NPM are more sensitive to”.

Take `Cc1cc(Nc2ncc(Cl)c(Nc3ccccc3S(=O)(=O)C(C)C)n2)c(OC(C)C)cc1C1CCNCC1` [ceritinib]: the “resistance by ALK secondary mutations” value is recorded as “mutations found in NSCLC have been associated with acquired resistance to ALK”.

With `C[C@@H](Oc1cc(-c2cnn(C3CCNCC3)c2)cnc1N)c1c(Cl)ccc(F)c1Cl` [crizotinib], the “resistance by ALK secondary mutations” value was “mutations found in NSCLC have been associated with acquired resistance to ALK”. In addition, the “sensitivity and response by ROS1 status” value (ROS-rearranged NSCLC patients, clinical data) is reported as “improved response to the MET/ALK/ROS inhibitor, crizotinib”.

Regarding `COc1cc2ncnc(Nc3ccc(F)c(Cl)c3)c2cc1NC(=O)/C=C/CN1CCCCC1` [dacomitinib], the “sensitivity by EGFRvIII expression” value (EGFRvIII expression, preliminary studies) was “higher sensitivity to erlotinib and gefitinib, as well as to pan-Her inhibitors including”.

For the molecule `COc1cccc2c1C(=O)c1c(O)c3c(c(O)c1C2=O)C[C@@](O)(C(C)=O)C[C@@H]3O[C@H]1C[C@H](N)[C@H](O)[C@H](C)O1` [daunorubicin], the “sensitivity of AML tumor cells by NPM status” value is reported as “research shows AML tumor cells with mutant NPM are more sensitive to”.

Turning to `CC(=O)O[C@@]12CO[C@@H]1C[C@H](O)[C@@]1(C)C(=O)[C@H](O)C3=C(C)[C@@H](OC(=O)[C@H](O)[C@@H](NC(=O)OC(C)(C)C)c4ccccc4)C[C@@](O)([C@@H](OC(=O)c4ccccc4)[C@H]21)C3(C)C` [docetaxel], the “PGP Positive (IHC) Bene. Level” value reads like this: (IHC positive: TLE3 F, TUBB3 F, PGP F) 1; (IHC positive: TLE3 F, TUBB3 F, PGP T) 2; (IHC positive: TLE3 F, TUBB3 No Data, PGP F) 1; (IHC positive: TLE3 F, TUBB3 No Data, PGP T) 3; (IHC positive: TLE3 F, TUBB3 T, PGP F) 1; (IHC positive: TLE3 F, TUBB3 T, PGP T) 3. The “PGP Positive (IHC) Bene. Level” value by setting is: (IHC positive: TLE3 No Data, TUBB3 F, PGP F) 1; (IHC positive: TLE3 No Data, TUBB3 F, PGP T) 2; (IHC positive: TLE3 No Data, TUBB3 No Data, PGP F) 1; (IHC positive: TLE3 No Data, TUBB3 No Data, PGP T) 3; (IHC positive: TLE3 No Data, TUBB3 T, PGP F) 1; (IHC positive: TLE3 No Data, TUBB3 T, PGP T) 3. Further, the “PGP Positive (IHC) Bene. Level” value is 1 (IHC positive: TLE3 T, TUBB3 F, PGP F); 2 (IHC positive: TLE3 T, TUBB3 F, PGP T); 1 (IHC positive: TLE3 T, TUBB3 No Data, PGP F); 2 (IHC positive: TLE3 T, TUBB3 No Data, PGP T); 1 (IHC positive: TLE3 T, TUBB3 T, PGP F); 2 (IHC positive: TLE3 T, TUBB3 T, PGP T). For the same molecule, the “PGP Positive (IHC) Evid. Level” value (taxanes rule, Ref. No. 28) was 3.

`COc1cccc2c1C(=O)c1c(O)c3c(c(O)c1C2=O)C[C@@](O)(C(=O)CO)C[C@@H]3O[C@H]1C[C@H](N)[C@H](O)[C@H](C)O1` [doxorubicin, reference compound]: under “PGP Positive (IHC)=F”, the “Bene. Level, PGP Positive (IHC)” value was 1 and the “Evid. Level, PGP Positive (IHC)” value is on record as 2. Also, where the note is “PGP Positive (IHC)=T”, the “Bene. Level, PGP Positive (IHC)” value is given as 2 and the “Evid. Level, PGP Positive (IHC)” value was 2.

`CNC(=O)c1ccc(N2C(=S)N(c3ccc(C#N)c(C(F)(F)F)c3)C(=O)C2(C)C)cc1F` [enzalutamide]: the “resistance by AR mutations” value (specific mutations in AR (e.g. F876L, AR-V7)) is given as “F876L, AR-V7) are associated with resistance to newer-generation, AR-targeted therapies”.

For the molecule `COc1cccc2c1C(=O)c1c(O)c3c(c(O)c1C2=O)C[C@@](O)(C(=O)CO)C[C@@H]3O[C@H]1C[C@H](N)[C@@H](O)[C@H](C)O1` [epirubicin], the “Bene. Level, PGP Positive (IHC)” value runs as follows: (PGP Positive (IHC)=F) 1; (PGP Positive (IHC)=T) 2. For the same molecule, the “Evid. Level, PGP Positive (IHC)” value is on record as 2 (PGP Positive (IHC)=F) and 2 (PGP Positive (IHC)=T).
